{"source": "paper PMC6790247", "about": "(Journal of Insect Science, 2019)", "format_in_all_cases": "biochemical", "key": {"[1]": {"target": "T1, nlGSTE (Nilaparvata lugens, UniProt J9Q4G5, F118L)", "T1 sequence (J9Q4G5 1-217 F118L)": "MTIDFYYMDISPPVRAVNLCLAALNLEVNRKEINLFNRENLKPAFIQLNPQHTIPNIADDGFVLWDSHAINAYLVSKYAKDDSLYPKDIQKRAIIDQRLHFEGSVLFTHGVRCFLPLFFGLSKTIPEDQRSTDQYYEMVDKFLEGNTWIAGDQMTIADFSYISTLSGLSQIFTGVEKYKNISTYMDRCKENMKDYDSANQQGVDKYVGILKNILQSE", "assay": "spectrophotometry at […] nm, double-reciprocal plot", "conditions": "read-out: F118L; 5 mM GSH, 20 mM Tris-HCl pH 8.0, 30 °C"}, "[2]": {"target": "T2, nlGSTE (Nilaparvata lugens, UniProt J9Q4G5)", "T2 sequence (J9Q4G5 1-217)": "T1 sequence (J9Q4G5 1-217 F118L)", "assay": "spectrophotometry at […] nm, double-reciprocal plot", "conditions": "read-out: WT; 5 mM GSH, 20 mM Tris-HCl pH 8.0, 30 °C"}, "[3]": {"target": "T3, nlGSTE (Nilaparvata lugens, UniProt J9Q4G5, R112A)", "T3 sequence (J9Q4G5 1-217 R112A)": "T1 sequence (J9Q4G5 1-217 F118L)", "assay": "spectrophotometry at […] nm, double-reciprocal plot", "conditions": "read-out: R112A; 5 mM GSH, 20 mM Tris-HCl pH 8.0, 30 °C"}, "[4]": {"target": "T4, nlGSTE (Nilaparvata lugens, UniProt J9Q4G5, F119A)", "T4 sequence (J9Q4G5 1-217 F119A)": "T1 sequence (J9Q4G5 1-217 F118L)", "assay": "spectrophotometry at […] nm, double-reciprocal plot", "conditions": "read-out: F119A; 5 mM GSH, 20 mM Tris-HCl pH 8.0, 30 °C"}, "[5]": {"target": "T5, nlGSTE (Nilaparvata lugens, UniProt J9Q4G5, F107A)", "T5 sequence (J9Q4G5 1-217 F107A)": "T1 sequence (J9Q4G5 1-217 F118L)", "assay": "spectrophotometry at […] nm, double-reciprocal plot", "conditions": "read-out: F107A; 5 mM GSH, 20 mM Tris-HCl pH 8.0, 30 °C"}, "[6]": {"target": "T2, nlGSTE", "assay": "inhibition of CDNB conjugation, spectrophotometry", "conditions": "read-out: % remaining activity at 0.1 mM"}, "[7]": {"target": "T2, nlGSTE", "assay": "inhibition of CDNB conjugation, spectrophotometry", "conditions": "substrates CDNB and GSH; several inhibitor concentrations"}}, "data": [{"smiles": "O=[N+]([O-])c1ccc(Cl)c([N+](=O)[O-])c1", "note": "[CDNB, 1-chloro-2,4-dinitrobenzene]", "values": [{"measurement": "Km", "setting": "[1]", "value": "4.2 ± 0.865", "unit": "mM"}, {"measurement": "Km", "setting": "[2]", "value": "2.1 ± 0.165", "unit": "mM"}, {"measurement": "Km", "setting": "[3]", "value": "8.7 ± 0.666", "unit": "mM"}, {"measurement": "Km", "setting": "[4]", "value": "5 ± 0.575", "unit": "mM"}, {"measurement": "Km", "setting": "[5]", "value": "3.1 ± 0.367", "unit": "mM"}]}, {"smiles": "CNC(=O)Oc1cccc2c1OC(C)(C)O2", "note": "[bendiocarb]", "values": [{"measurement": "remaining activity at 100 µM", "setting": "[6]", "value": 36, "unit": "%"}]}, {"smiles": "CCOCn1c(-c2ccc(Cl)cc2)c(C#N)c(Br)c1C(F)(F)F", "note": "[chlorfenapyr]", "values": [{"measurement": "remaining activity at 100 µM", "setting": "[6]", "value": 84, "unit": "%"}]}, {"smiles": "CCOP(=S)(OCC)Oc1cc(C)nc(C(C)C)n1", "note": "[diazinon]", "values": [{"measurement": "remaining activity", "setting": "[7]", "value": "nlGSTE activity was affected by permethrin, bendiocarb, diazinon, and chlorfenapyr"}]}, {"smiles": "CC1(C)C(C=C(Cl)Cl)C1C(=O)OCc1cccc(Oc2ccccc2)c1", "note": "(stereo not drawn) [permethrin]", "values": [{"measurement": "remaining activity", "setting": "[7]", "value": "nlGSTE activity was affected by permethrin, bendiocarb, diazinon, and chlorfenapyr"}]}]}
